Data from patent publication US9109175B2, “Isoprenoid based alternative diesel fuel” (The Regents of the University of California, priority 2010, dated 2015).
Marks after values point to notes of the source that are not given here.

Columns and labels:
Type in all cases: physicochemical
[1] = Cetane number, ASTM D6890 / D613; conditions: for Cetane number: ASTM D6890
Description: “Cetane number” refers to a measure of how readily a fuel starts to burn (autoignite) under conditions described by ASTM D613 or ASTM D6890. A fuel with a high cetane number starts to burn shortly after it is injected into the cylinder; it has a short ignition delay period. Conversely, a fuel with a low cetane number resists autoignition and has a longer ignition delay period.
(§1) Fuel property testing of hydrogenated bisabolene was carried out using standard ASTM methods known to and used by those of skill in the art. Table 1 sets forth the various fuel properties analyzed for each of Diesel Fuel Grade #2, bisabolene (mixture of isomers) and hydrogenated bisabolene as well as the ASTM test methods employed to analyze the particular fuel property.

Density, ASTM D4052 = conditions: ASTM D4052, 15.56° C.
Description: “Density” refers to a measure of mass per volume at a particular temperature. The generally accepted method for measuring the density of a fuel is ASTM Standard D4052, which is incorporated herein by reference.
as §1

API gravity, ASTM D4052 = conditions: ASTM D4052, 15.56° C.
Description: as §1

Flash point, ASTM D93 = experiment: Flash point, ASTM D93
Description: as §1

[2] = Distillation temperature, ASTM D2887 / D86
Description: as §1

[3] = Kinetic viscosity, ASTM D445; conditions: ASTM D445, 40° C.
Description: “Viscosity” refers to a measure of the resistance of a fuel or fuel composition to deform under shear stress. The generally accepted method for measuring the viscosity of a fuel is ASTM Standard D445, which is incorporated herein by reference.
as §1

Freeze point, ASTM D5972 = experiment: Freeze point, ASTM D5972
Description: as §1

[4] = Cloud point, ASTM D5773 / D2500
Description: as §1

Cetane number [1]	Derived Cetane Number (DCN) [1]	Density (@ 15.56° C.) (Density, ASTM D4052)	API Gravity (@ 15.56° C.) (API gravity, ASTM D4052)	Flash point (Flash point, ASTM D93)	Distillation [2]	Kinetic viscosity (@ 40° C.) [3]	Freeze point (Freeze point, ASTM D5972)	Cloud point [4]	SMILES
52.6									CC(C)CCCC(C)C1CCC(C)CC1 (stereo not shown) [Hydrogenated biosynthetic bisabolene, 1(1,5-dimethylhexyl)-4-methylcyclohexane]
	about 42								CC(C)CCCC(C)C1CCC(C)CC1 (stereo not shown) [hydrogenated bisabolene]
41.9		819.7 kg/m^3	41	111 °C	267^d ° C.	2.91 mm^2/s	<−81 °C	<−78 °C	CC(C)CCCC(C)C1CCC(C)CC1 (stereo not shown) [Hydrogenated commercial bisabolene, 1(1,5-dimethylhexyl)-4-methylcyclohexane]
